The text below walks through data of PMC5608272 (PLoS ONE, 2017).

Where two headings read alike, the source gives them in different places.

For orientation: Km means the substrate concentration at which the rate is half of its maximum. Usually IC50 stands for the concentration at which inhibition is half-maximal. The term Kd denotes the equilibrium constant for the complex coming apart. Read a low Kd as tighter binding.

One series concerns the target T1, Human cGAS (aa 2–522) (Homo sapiens, UniProt Q8N884).
T1 construct: Amino acids 2-522 of human MB21D1 (Uniprot ID: Q8N884); made in house; host or cells: Spodoptera frugiperda Sf-9 (baculovirus)
Description: cGAS activity mass spectrometry assay (cGAMP production by LC-MS). It is filed as biochemical. Conditions: for Km: other nucleotide fixed: ATP 1 mM, GTP 300 μM, read-out: apparent Km; for effect of metals on cGAS activity: 1 nM cGAS, 1 nM dsDNA, in words. How it is done: cGAS activity was measured in buffer (10 mM Hepes, 140 mM NaCl, 0.01% Tween-20, 5 mM MgCl2, pH 7.5) containing 1 mM ATP, 0.3 mM GTP, 100 nM ISD DNA (45 bp dsDNA), and 100 nM cGAS in the presence or absence of test compounds. […] The reaction was incubated for 30 minutes at 37°C and stopped with the addition of 50 mM EDTA. […] An earlier version of the assay utilized the same buffer and nucleotide conditions but was conducted in the presence of 1 nM cGAS, 1 nM ISD DNA and carried out for 6 h at 37°C before being processed as described above.
50 μl of H2O was added to each 25 μl cGAS reaction (384 well format). The samples were mixed by briefly vortexing followed by a 10 min, 3000 g centrifugation at room temperature. […] 10 μl of sample was injected on to a 2x30 mm hypercarb column (Thermo Scientific) kept at 60°C with a flow rate of 0.8 ml/min and a loop sweep time of 20 s. Mobile phase A consisted of 10 mM Ammonium Acetate, pH 10, and Mobile phase B consisted of 90:10 (Acetonitrile:Acetone 1:1): 10 mM Ammonium Acetate pH 10 + 0.1% formic acid. […] ATP and GTP had the following optimized parameters: dp 99 ep 10 ce 64 cxp 10. […] The data was processed using Sciex's Multiquant 3.0.

In a further series the test system is mAb 80–2. As to the kind of experiment: Competition ELISA, mAb 80–2 binding to BSA-cGAMP. The arrangement: species or system mouse. To be noted: preincubated 1 hr; ATP, GTP at mM concentrations; in words. How it is done: After washing, plates were developed with substrate, the reaction was stopped with 2 N H2SO4 and OD was read at 450 nm. […] After incubation for 1 hr, plates were washed, incubated with secondary antibody, and developed as described above.

For series [1], the system named is dsDNA-induced IFN-beta expression. Description: Cellular cGAS assay: dsDNA-induced IFN-beta expression via luciferase reporter in THP-1 Dual cells. The class given is cell-based, human. The method, then: (§1) Cellular Assays. THP-1 Dual monocytes cells containing NF-κB-SEAP and IRF-Luc Reporter (InvivoGen cat # thpd-nfis) were plated at 1x10^5 cells/well in U bottom 96 well plates in 100μL RPMI media containing10% FBS. Tested compounds were diluted in 100% DMSO to stock concentration of 30 mM. The TBK1 inhibitor BX-795 was obtained from Sigma-Aldrich (cat#SML0694-5MG) and used as a positive control. Cells were pretreated with DMSO or compounds for 1 hr at room temperature, followed by Lipofectamine™ 2000 (Thermo Fisher cat# 11668027) transfection with salmon sperm DNA (InvivoGen cat# tlrl-sdef) at 100 ng/well. Cells were incubated for 12 hrs at 37 ^◦C in a 5% CO2 incubator followed by centrifugation at 1000 rpm for 5 min. Media was collected and Lucia luciferase was measured using Quanti-Luc substrate (InvivoGen cat# rep-qlc1) according to the manufacturer’s protocol. Viability of cells was assessed using Promega CellTiter Glo luminescent viability assay (Promega cat# G7570) according to the manufacturer’s protocol. All data points were normalized to the salmon sperm DNA-treated wells (without compound) and expressed as percent of signal.

In series [2] the target is T2, cGAS (Homo sapiens, UniProt Q8N884). Description: SPR binding to immobilized cGAS. To be noted: for Kd: absence of activating dsDNA, 4 °C. The method, then:
SPR assays. SPR experiments were performed using NTA sensor chips in a BIACORE T200 (GE Healthcare). cGAS was immobilized to a final density ca 5000-10000 RU. Sample-dependent responses were subtracted from channel 1, which had neither Ni or protein immobilized on it. Data were further corrected by subtracting a zero-concentratio blank from all compounds. Compounds were injected for 30-60 s, dissociation was measured for 30-120 s at 60 μL/min, 4 °C. Experiments were performed in buffer contained 20 mM HEPES (pH 7.5), 150 mM KCl, 20 mM MgCl2, 1 mM TCEP and 1% DMSO. Samples were injected with a top concentration, followed by 2-fold dilutions, and a final blank over 12 injection points. […] Dissociation equilibrium constants (KD) were determined using a binary association model (T200 BIA Eval software).
Target sequence in this assay (Q8N884 whole entry): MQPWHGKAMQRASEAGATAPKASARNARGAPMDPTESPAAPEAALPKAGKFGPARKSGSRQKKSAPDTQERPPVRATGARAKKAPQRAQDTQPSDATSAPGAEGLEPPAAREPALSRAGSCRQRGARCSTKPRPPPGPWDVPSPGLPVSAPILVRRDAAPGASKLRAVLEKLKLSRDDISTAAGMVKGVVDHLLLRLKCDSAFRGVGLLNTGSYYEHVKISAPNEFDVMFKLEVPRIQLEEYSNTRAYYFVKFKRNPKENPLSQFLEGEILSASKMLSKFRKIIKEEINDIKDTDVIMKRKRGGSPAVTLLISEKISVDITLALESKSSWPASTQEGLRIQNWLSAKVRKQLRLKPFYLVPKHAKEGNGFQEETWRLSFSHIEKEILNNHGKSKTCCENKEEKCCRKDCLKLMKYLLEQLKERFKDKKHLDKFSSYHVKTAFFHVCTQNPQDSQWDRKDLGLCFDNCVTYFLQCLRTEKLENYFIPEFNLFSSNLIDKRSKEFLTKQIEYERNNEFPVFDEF
In general terms: SPR reads the build-up and loss of mass on a sensor chip optically.

The next series has as its target T3, truncated h-cGAS (Homo sapiens, UniProt Q8N884).
T3 construct: a previously crystalized cGAS construct beginning at residue 161 (cGAS161) (H. sapiens numbering)
As to the kind of experiment: STD 1H NMR cGAMP competition binding on truncated h-cGAS. Conditions: mixture with 2´,3´-cGAMP, in words.

Series [3] can be described thus: Chemical stability observed on resynthesis. The class given is physicochemical. Conditions: upon attempted resynthesis, in words.
The target of series [4] is T2, cGAS. Description: Cy5-cGAMP fluorescence polarization assay of cGAS activity. Further details: Amino acids 2-522 of human MB21D1 (Uniprot ID: Q8N884); made in house; host or cells: Spodoptera frugiperda Sf-9 (baculovirus). It is filed as biochemical. (In general: In fluorescence polarisation assays a small probe gives low polarisation when free and higher when bound to something large.)
Target sequence in this assay (Q8N884 2-522): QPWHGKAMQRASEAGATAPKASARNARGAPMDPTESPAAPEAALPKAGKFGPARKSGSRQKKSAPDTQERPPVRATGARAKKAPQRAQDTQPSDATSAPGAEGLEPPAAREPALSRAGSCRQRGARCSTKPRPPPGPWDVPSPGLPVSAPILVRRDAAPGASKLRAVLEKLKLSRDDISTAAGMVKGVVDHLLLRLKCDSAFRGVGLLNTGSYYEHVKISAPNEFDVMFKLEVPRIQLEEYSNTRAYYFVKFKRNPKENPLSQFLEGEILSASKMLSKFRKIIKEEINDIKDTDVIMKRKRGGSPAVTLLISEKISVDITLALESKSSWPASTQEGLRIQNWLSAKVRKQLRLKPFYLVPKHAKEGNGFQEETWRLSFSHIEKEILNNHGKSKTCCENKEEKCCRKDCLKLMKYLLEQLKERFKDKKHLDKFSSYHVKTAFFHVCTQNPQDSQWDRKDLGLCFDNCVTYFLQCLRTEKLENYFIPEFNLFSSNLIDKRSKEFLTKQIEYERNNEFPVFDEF

A further series has as its system THP-1 Dual cells. Description: Cell viability, CellTiter Glo, THP-1 Dual cells. The class given is cell-based, human. To be noted: in words. The method, then:
as §1

Where [5] appears, read: 1 mM ATP, 0.3 mM GTP, 100 nM ISD DNA, 100 nM cGAS, read-out: MS IC50.
Setting [6] is: 1 mM ATP, 0.3 mM GTP, 100 nM ISD DNA, 100 nM cGAS, read-out: FP IC50.

T1 sequence (Q8N884 2-522): as above
T3 sequence (Q8N884 161-522 limits assumed): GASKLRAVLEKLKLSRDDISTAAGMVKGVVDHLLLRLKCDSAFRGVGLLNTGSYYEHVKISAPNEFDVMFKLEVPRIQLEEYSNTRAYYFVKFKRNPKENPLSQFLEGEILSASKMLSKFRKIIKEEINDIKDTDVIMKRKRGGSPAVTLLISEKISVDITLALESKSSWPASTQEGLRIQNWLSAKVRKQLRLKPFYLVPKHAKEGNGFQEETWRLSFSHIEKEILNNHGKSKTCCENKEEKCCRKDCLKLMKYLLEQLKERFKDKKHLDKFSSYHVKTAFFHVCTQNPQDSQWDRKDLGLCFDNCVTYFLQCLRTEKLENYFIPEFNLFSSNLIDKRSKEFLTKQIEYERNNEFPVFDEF
Description for truncated h-cGAS: Nuclear Magnetic Resonance (NMR). All NMR spectra were collected on a Bruker Avance III series 600 MHz spectrometer equipped with a 1.7 mm micro cryoprobe. For fragment screening, the Pfizer fragment library (~3,200 fragments) was screened against 3 μM truncated h-cGAS in 20 mM hepes (pH 7.5) buffer containing 150 mM KCl and 1 mM TCEP, and no DNA. The concentration of each fragment was 300 µM, and each sample contains either five or ten fragments in the mixture. Saturation transfer difference (STD) spectra for each fragment mixture were collected and binders were identified by comparing their STD signals with 1D reference spectra of the fragments in the mixture.

Consider `Nc1ncnc2c1ncn2[C@@H]1O[C@H](COP(=O)(O)OP(=O)(O)OP(=O)(O)O)[C@@H](O)[C@H]1O` [ATP], for which the Km at Human cGAS (aa 2–522) came out at 35 µM. Moreover, the “inhibition of mAb 80–2 binding to BSA-cGAMP” value in the series on mAb 80–2 is given as “neither ATP nor GTP at mM concentrations inhibited the binding”.

For `O=C(NCCCNc1nc(Nc2cccc(NC(=O)N3CCCC3)c2)ncc1I)c1cccs1` [BX-395, reference compound], the concentration for half-maximal inhibition (IC50) in series [1] (Homo sapiens, THP1-Dual, positive control, read-out: IC50, inhibition of IFN-β induction) was roughly 0.06 µM.

Consider `Oc1cc(-c2ccccc2)nc2nnnn12` [Compound 15], for which, on cGAS [2], the Kd turned out to be 171 µM. Also, at truncated h-cGAS, the “competition with 2´,3´-cGAMP for interacting with cGAS (1H STD)” value is “out competed 2´,3´-cGAMP”. Further, the chemical stability entry in series [3] is “not chemically stable and readily isomerizes via an open-ring azidopyrimidine”.

In the case of `CNC(=O)c1cnn2c(=O)cc(-c3ccccc3)[nH]c12` [Compound 16, N-methyl-7-oxo-5-phenyl-4,7-dihydropyrazolo[1,5-a]pyrimidine-3-carboxamide], the Kd at cGAS [2] came to 78 µM. Further, the half-maximal inhibitory concentration (IC50) on Human cGAS (aa 2–522) (setting [5]) was 69 µM; at cGAS [4] (setting [6]), 125 µM; at cGAS [4] (text summary of Fig 3, spans MS and FP assay values, read-out: IC50, inhibition of cGAS functional activity), 69 to 125 µM.

With `O=C(NCCO)c1cnn2c(=O)cc(-c3ccccc3)[nH]c12` [Compound 17, N-(2-hydroxyethyl)-7-oxo-5-phenyl-4,7-dihydropyrazolo[1,5-a]pyrimidine-3-carboxamide], on cGAS [2], binding was characterised by a dissociation constant (Kd) of 12.5 µM. Further, the concentration for half-maximal inhibition (IC50) was determined as 19 µM on Human cGAS (aa 2–522) (setting [5]) and 15.1 µM on cGAS [4] (setting [6]).

With `O=C(O)CNC(=O)c1cnn2c(=O)cc(-c3ccccc3)[nH]c12` [Compound 18, (7-oxo-5-phenyl-4,7-dihydropyrazolo[1,5-a]pyrimidine-3-carbonyl)glycine], binding at cGAS [2] was characterised by a dissociation constant (Kd) of 6.7 µM. The 50% inhibitory concentration (IC50) at Human cGAS (aa 2–522) was found to be 21 µM; at cGAS [4] it was 10.6 µM.

At cGAS [2], `C[C@@H](CO)NC(=O)c1cnn2c(=O)cc(-c3ccccc3)[nH]c12` [Compound 19, (S)-N-(1-hydroxypropan-2-yl)-7-oxo-5-phenyl-4,7-dihydropyrazolo[1,5-a]pyrimidine-3-carboxamide] registered a Kd of 2.7 µM. In addition, the IC50 came to 8.1 µM at Human cGAS (aa 2–522) (setting [5]) and 17.5 µM at cGAS [4] (setting [6]).

Take `Nc1nc2c(ncn2[C@@H]2O[C@H](COP(=O)(O)OP(=O)(O)OP(=O)(O)O)[C@@H](O)[C@H]2O)c(=O)[nH]1` [GTP]: the Km at Human cGAS (aa 2–522) is 30 µM. For the same molecule, in the series with mAb 80–2, the “inhibition of mAb 80–2 binding to BSA-cGAMP” value is on record as “neither ATP nor GTP at mM concentrations inhibited the binding”.

With `O=C(N[C@H]1CCCC[C@H]1C(=O)O)c1cnn2c(=O)cc(-c3ccccc3)[nH]c12` [PF-06928215, (1R,2S)-2-(7-oxo-5-phenyl-4,7-dihydropyrazolo[1,5-a]pyrimidine-3 carboxamido) cyclohexane-1-carboxylic acid], the off rate kinetics result at cGAS [2] (SPR sensorgram, in words) is on record as “longer off rate kinetics than any other compound in this series”. Further, the “activity on dsDNA-induced IFN-beta expression” value in series [1] (salmon sperm DNA 12 hrs, in words) was “no activity”. In addition, the “effect on cell viability” value in the series on THP-1 Dual cells was “minimal effect on cell viability”.

On to `[Cu][Br]` [copper, CuBr], for which, on Human cGAS (aa 2–522), the “effect of metals on cGAS activity” value was “very sensitive to inhibition”.

`CC(=O)[O-].CC(=O)[O-].[Pd+2]` [palladium, Pd(OAc)2]: at Human cGAS (aa 2–522), the “effect of metals on cGAS activity” value was “very sensitive to inhibition”.

With `[Cl-].[Cl-].[Zn+2]` [zinc, ZnCl2], at Human cGAS (aa 2–522), the “effect of metals on cGAS activity” value was “increased enzymatic activity”.
